Data as given in US11319315B2, “Cyclohexyl acid triazole azoles as LPA antagonists” (BRISTOL-MYERS SQUIBB COMPANY, priority 2017, dated 2022).
pIC50: −log10 of the molar value. Where a name gives a salt, the structure may show the parent alone. Read-outs that look alike come from different tables or passages of the source.

Target: T1, human LPA1 (Homo sapiens, UniProt Q92633)
T1 construct: expressed in transfected cells; host or cells: Chinese hamster ovary (CHO) cells
Test: LPA1 functional antagonist assay (LPA-induced calcium flux in CHO cells overexpressing human LPA1)
Format: cell-based
Details: read-out: hLPA1 IC50
Procedure, shortened: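 CHO cells overexpressing human LPA1, dye-loaded 30 min at 37 °C, then given compound (0.08 nM–5 μM final, 0.5% DMSO) in HBSS/20 mM HEPES/0.1% fatty-acid-free BSA for 20 min at room temperature before 10 nM LPA. IC50 as 50% inhibition of LPA-evoked calcium flux, 4-parameter logistic fit.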

[1] = inhibition of calcium flux induced by 10 nM LPA, CHO cells overexpressing human LPA1

T1 sequence (Q92633 whole entry): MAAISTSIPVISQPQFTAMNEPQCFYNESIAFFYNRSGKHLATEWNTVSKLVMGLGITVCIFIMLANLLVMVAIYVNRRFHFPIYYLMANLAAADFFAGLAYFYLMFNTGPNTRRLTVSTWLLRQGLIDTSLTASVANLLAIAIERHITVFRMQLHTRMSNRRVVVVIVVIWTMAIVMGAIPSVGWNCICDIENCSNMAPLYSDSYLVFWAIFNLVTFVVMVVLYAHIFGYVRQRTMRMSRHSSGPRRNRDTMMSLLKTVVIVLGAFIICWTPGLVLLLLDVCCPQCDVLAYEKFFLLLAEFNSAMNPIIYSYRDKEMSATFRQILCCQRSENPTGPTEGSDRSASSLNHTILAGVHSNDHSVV

| pIC50 [1] | pIC50 | Compound |
| --- | --- | --- |
| 6.41 | – | Cc1nc(-c2nnn(C)c2Cn2nnnc2C2CCCC2)ccc1O[C@H]1CCC[C@H](C(=O)O)C1 [Example 330, (1S,3S)-3-((6-(5-((5-cyclopentyl-1H-tetrazol-1-yl)methyl)-1-methyl-1H-1,2,3-triazol-4-yl)-2-methylpyridin-3-yl)oxy)cyclo-hexane-1-carboxylic acid] |
| – | 6.80 | Cc1ccc(-n2nnc(NCc3c(-c4ccc(O[C@H]5CCC[C@H](C(=O)O)C5)c(C)n4)nnn3C)n2)cc1 [Example 385, (1S,3S)-3-((2-methyl-6-(1-methyl-5-(((2-(p-tolyl)-2H-tetrazol-5-yl)amino)methyl)-1H-1,2,3-triazol-4-yl)pyridin-3-yl)oxy)cyclohexane-1-carboxylic acid] |
| 6.65 | – | Cc1nc(-c2nnn(C)c2Cn2nnnc2C2CCC2)ccc1O[C@H]1CCC[C@H](C(=O)O)C1 [Example 354, (1S,3S)-3-[(6-{5-[(5-cyclobutyl-1H-1,2,3,4-tetrazol-1-yl)methyl]-1-methyl-1H-1,2,3-triazol-4-yl}-2-methylpyridin-3-yl)oxy]cyclo-hexane-1-carboxylic acid] |
| 7.39 | – | CCc1nc(OCc2c(-c3ccc(O[C@H]4CCC[C@H](C(=O)O)C4)c(C)n3)nnn2C)no1 [Example 129] |
| 7.47 | – | Cn1nnc(-c2ccc(O[C@H]3CCC[C@H](C(=O)O)C3)cn2)c1CNc1noc(CC2CCC2)n1 [Example 288, (1S,3S)-3-((6-(5-(((5-(cyclobutylmethyl)-1,2,4-oxadiazol-3-yl)amino)methyl)-1-methyl-1H-1,2,3-triazol-4-yl)pyridin-3-yl)oxy)cyclohexane-1-carboxylic acid] |
| 6.54 | – | CC(C)Cc1nnn(Cc2c(-c3ccc(O[C@H]4CCC[C@H](C(=O)O)C4)cn3)nnn2C)n1 [Example 254, (1S,3S)-3-((6-(5-((5-isobutyl-2H-tetrazol-2-yl)methyl)-1-methyl-1H-1,2,3-triazol-4-yl)pyridin-3-yl)oxy)cyclohexane-1-carboxylic acid] |
| 7.01 | – | Cc1nc(-c2nnn(C)c2COc2nc(C(C)C)ns2)ccc1O[C@H]1CCC[C@H](C(=O)O)C1 [Example 128] |
| 6.35 | – | Cc1nc(-c2nnn(C)c2Nc2nnc(CC3CC3)o2)ccc1O[C@H]1CCC[C@H](C(=O)O)C1 [Example 276, (1 S,3S)-3-((6-(5-((5-(Cyclopropylmethyl)-1,3,4-oxadiazol-2-yl)amino)-1-methyl-1H-1,2,3-triazol-4-yl)-2-methylpyridin-3-yl)oxy)cyclohexane-1-carboxylic acid, 2 TFA salt] |
| – | 6.52 | CCCc1cn(Cc2c(-c3ccc(O[C@H]4CCC[C@H](C(=O)O)C4)c(CC)n3)nnn2C)nn1 [Example 372, (1S,3S)-3-((2-ethyl-6-(1-methyl-5-((4-propyl-1H-1,2,3-triazol-1-yl)methyl)-1H-1,2,3-triazol-4-yl)pyridin-3-yl)oxy)cyclohexane-1-carboxylic acid] |
| 7.01 | – | CCCOc1nnn(Cc2c(-c3ccc(O[C@H]4CCC[C@H](C(=O)O)C4)c(C)n3)nnn2C)n1 [Example 340] |
| 7.49 | – | Cc1nc(-c2nnn(C)c2CNc2noc(CCCCF)n2)ccc1O[C@H]1CCC[C@H](C(=O)O)C1 [Example 183] |
| 7.80 | – | Cc1nc(-c2nnn(C)c2CNc2noc(CCC(C)F)n2)ccc1O[C@H]1CCC[C@H](C(=O)O)C1 (stereo partly drawn) [Example 167] |
| 6.62 | – | Cc1nc(-c2nnn(C)c2Cn2cc(C(=O)c3ccccc3)nn2)ccc1O[C@H]1CCC[C@H](C(=O)O)C1 [Example 85] |
| 7.02 | – | Cc1nc(-c2nnn(C)c2Cn2nnnc2C(C)C)ccc1O[C@H]1CCC[C@H](C(=O)O)C1 [Example 298, (1S,3S)-3-{[2-methyl-6-(1-methyl-5-{[5-(propan-2-yl)-1H-1,2,3,4-tetrazol-1-yl]methyl}-1H-1,2,3-triazol-4-yl)pyridin-3-yl]oxy}cyclohexane-1-carboxylic acid] |
| 6.48 | – | Cc1nc(-c2nnn(C)c2Cn2nnnc2CCC2CC2)ccc1O[C@H]1CCC[C@H](C(=O)O)C1 [Example 357, (1S,3S)-3-{[6-(5-{[5-(2-cyclopro-pylethyl)-1H-1,2,3,4-tetrazol-1-yl]methyl}-1-methyl-1H-1,2,3-triazol-4-yl)-2-methylpyridin-3-yl]oxy}cyclohexane-1-carboxylic acid] |
| 5.83 | – | Cc1nc(-c2nnn(C)c2CNc2ncn(C(C)C)n2)ccc1O[C@H]1CCC[C@H](C(=O)O)C1 [Example 126] |
| 7.02 | – | Cc1nc(-c2nnn(C)c2CNc2nnc(Cc3ccccc3)o2)ccc1O[C@H]1CCC[C@H](C(=O)O)C1 [Example 50] |
| 7.24 | – | Cc1nc(-c2nnn(C)c2Cn2ncc(-c3ccccc3)n2)ccc1O[C@H]1CCC[C@H](C(=O)O)C1 [Example 273, (1 S,3S)-3-((2-methyl-6-(1-methyl-5-((4-phenyl-2H-1,2,3-triazol-2-yl)methyl)-1H-1,2,3-triazol-4-yl)pyridin-3-yl)oxy)cyclohexane-1-carboxylic acid] |

| pIC50 [1] | pIC50 | Compound |
| --- | --- | --- |
| 6.02 | – | Cc1ccn(Cc2nnnn2Cc2c(-c3ccc(O[C@H]4CCC[C@H](C(=O)O)C4)c(C)n3)nnn2C)n1 [Example 303, (1S,3S)-3-({2-methyl-6-[1-methyl-5-({5-[(3-methyl-1H-pyrazol-1-yl)methyl]-1H-1,2,3,4-tetrazol-1-yl}methyl)-1H-1,2,3-triazol-4-yl]pyridin-3-yl}oxy)cyclohexane-1-carboxylic acid] |
| 6.68 | – | Cc1nc(-c2nnn(C)c2CNc2nnc(C3CCCC3)o2)ccc1O[C@H]1CCC[C@H](C(=O)O)C1 [Example 48] |
| 7.36 | – | CCCCc1cn(Cc2c(-c3ccc(O[C@H]4CCC[C@H](C(=O)O)C4)c(C)n3)nnn2C)nn1 [Example 79, (1 S,3 S)-3-((6-(5-((4-butyl-1H-1,2,3-triazol-1-yl)methyl)-1-methyl-1H-1,2,3-triazol-4-yl)-2-methylpyridin-3-yl)oxy)cyclohexane-1-carboxylic acid] |
| 7.51 | – | Cn1nnc(-c2ccc(O[C@H]3CCC[C@H](C(=O)O)C3)cn2)c1Cn1nnc(C2CCCC2)n1 [Example 259, (1S,3S)-3-((6-(5-((5-cyclopentyl-2H-tetrazol-2-yl)methyl)-1-methyl-1H-1,2,3-triazol-4-yl)pyridin-3-yl)oxy)cyclohexane-1-carboxylic acid] |
| 6.32 | – | Cc1nc(-c2nnn(C)c2CNc2nc(-c3ccccn3)ns2)ccc1O[C@H]1CCC[C@H](C(=O)O)C1 [Example 101] |
| 7.49 | – | Cc1nc(-c2nnn(C)c2COc2ncn(CC(C)C)n2)ccc1O[C@H]1CCC[C@H](C(=O)O)C1 [Example 135, (1 S,3 S)-3-((6-(5-(((1-Isobutyl-1H-1,2,4-triazol-3-yl)oxy)methyl)-1-methyl-1H-1,2,3-triazol-4-yl)-2-methylpyridin-3-yl)oxy)cyclohexane-1-carboxylic acid] |
| 7.92 | – | CCCC(C)c1nc(NCc2c(-c3ccc(O[C@H]4CCC[C@H](C(=O)O)C4)c(C)n3)nnn2C)no1 (stereo partly drawn) [Example 171] |
| 7.72 | – | Cc1nc(-c2nnn(C)c2CNc2noc(C3(F)CCC3)n2)ccc1O[C@H]1CCC[C@H](C(=O)O)C1 [Example 148] |
| 7.13 | – | Cc1nc(-c2nnn(C)c2CNc2noc(C3CC(F)C3)n2)ccc1O[C@H]1CCC[C@H](C(=O)O)C1 (stereo partly drawn) [Example 189] |
| 7.47 | – | Cc1nc(-c2nnn(C)c2CNc2noc(COC3CC3)n2)ccc1O[C@H]1CCC[C@H](C(=O)O)C1 [Example 212, (1 S,3 S)-3-((6-(5-(((5-(cyclopropoxymethyl)-1,2,4-oxadiazol-3-yl)amino)methyl)-1-methyl-1H-1,2,3-triazol-4-yl)-2-methylpyridin-3-yl)oxy)cyclohexane-1-carboxylic acid] |
| 7.85 | – | Cc1nc(-c2nnn(C)c2CNc2noc(Cc3ccccc3)n2)ccc1O[C@H]1CCC[C@H](C(=O)O)C1 [Example 67] |
| 7.66 | – | Cc1nc(-c2nnn(C)c2Cn2nnc(OCCC3CC3)n2)ccc1O[C@H]1CCC[C@H](C(=O)O)C1 [Example 316, (1 S,3S)-3-((6-(5-((5-(2-cyclopropylethoxy)-2H-tetrazol-2-yl)methyl)-1-methyl-1H-1,2,3-triazol-4-yl)-2-methylpyridin-3-yl)oxy)cyclohexane-1-carboxylic acid] |
| 6.26 | – | Cc1nc(-c2nnn(C)c2CNc2nnc(C(C)C)s2)ccc1O[C@H]1CCC[C@H](C(=O)O)C1 [Example 122] |
| 7.52 | – | Cc1nc(-c2nnn(C)c2Cn2nnc(OCC3CCC3)n2)ccc1O[C@H]1CCC[C@H](C(=O)O)C1 [Example 332, (1S,3S)-3-{[6-(5-{[5-(cyclobutyl-methoxy)-2H-1,2,3,4-tetrazol-2-yl]methyl}-1-methyl-1H-1,2,3-triazol-4-yl)-2-methylpyridin-3-yl]oxy}cyclohexane-1-carboxylic acid] |
| – | 6.91 | Cc1nc(-c2nnn(C)c2Cc2nnnn2Cc2ccccc2)ccc1O[C@H]1CCC[C@H](C(=O)O)C1 [Example 369, (1S,3S)-3-((6-(5-((1-benzyl-1H-tetrazol-5-yl)methyl)-1-methyl-1H-1,2,3-triazol-4-yl)-2-methylpyridin-3-yl)oxy)cyclohexane-1-carboxylic acid] |
| 7.62 | – | Cc1nc(-c2nnn(C)c2CNc2noc(C(C)C3CC3)n2)ccc1O[C@H]1CCC[C@H](C(=O)O)C1 (stereo partly drawn) [Example 185] |
| 7.28 | – | Cc1nc(-c2nnn(C)c2CNc2nc(CC(C)C)no2)ccc1O[C@H]1CCC[C@H](C(=O)O)C1 [Example 157] |
| 7.04 | – | CCOC(C)c1nc(NCc2c(-c3ccc(O[C@H]4CCC[C@H](C(=O)O)C4)c(C)n3)nnn2C)no1 (mixture of isomers) [Example 222, (1S,3S)-3-((6-(5-(((5-(1-ethoxyethyl)-1,2,4-oxadiazol-3-yl)amino)methyl)-1-methyl-1H-1,2,3-triazol-4-yl)-2-methylpyridin-3-yl)oxy)cyclohexane-1-carboxylic acid] |
